Measured values as given in ChEMBL document CHEMBL5360605, “Novel Lactams as CBL-B Inhibitors for Treating Cancer” (ACS Med Chem Lett, 2023).

The compounds below were run against E3 ubiquitin-protein ligase CBL-B (Homo sapiens, UniProt Q13191) (assay: Inhibition of biotin-tagged Cbl-b (unknown origin) assessed as reduction in LCK ubiquitination using His-LCK as substrate preincubated for 60 mins followed by substrate addition in presence of ATP, MgCl2 and measured after 90 mins by HTRF assay).
E3 ubiquitin-protein ligase CBL-B, sequence (Q13191 whole entry): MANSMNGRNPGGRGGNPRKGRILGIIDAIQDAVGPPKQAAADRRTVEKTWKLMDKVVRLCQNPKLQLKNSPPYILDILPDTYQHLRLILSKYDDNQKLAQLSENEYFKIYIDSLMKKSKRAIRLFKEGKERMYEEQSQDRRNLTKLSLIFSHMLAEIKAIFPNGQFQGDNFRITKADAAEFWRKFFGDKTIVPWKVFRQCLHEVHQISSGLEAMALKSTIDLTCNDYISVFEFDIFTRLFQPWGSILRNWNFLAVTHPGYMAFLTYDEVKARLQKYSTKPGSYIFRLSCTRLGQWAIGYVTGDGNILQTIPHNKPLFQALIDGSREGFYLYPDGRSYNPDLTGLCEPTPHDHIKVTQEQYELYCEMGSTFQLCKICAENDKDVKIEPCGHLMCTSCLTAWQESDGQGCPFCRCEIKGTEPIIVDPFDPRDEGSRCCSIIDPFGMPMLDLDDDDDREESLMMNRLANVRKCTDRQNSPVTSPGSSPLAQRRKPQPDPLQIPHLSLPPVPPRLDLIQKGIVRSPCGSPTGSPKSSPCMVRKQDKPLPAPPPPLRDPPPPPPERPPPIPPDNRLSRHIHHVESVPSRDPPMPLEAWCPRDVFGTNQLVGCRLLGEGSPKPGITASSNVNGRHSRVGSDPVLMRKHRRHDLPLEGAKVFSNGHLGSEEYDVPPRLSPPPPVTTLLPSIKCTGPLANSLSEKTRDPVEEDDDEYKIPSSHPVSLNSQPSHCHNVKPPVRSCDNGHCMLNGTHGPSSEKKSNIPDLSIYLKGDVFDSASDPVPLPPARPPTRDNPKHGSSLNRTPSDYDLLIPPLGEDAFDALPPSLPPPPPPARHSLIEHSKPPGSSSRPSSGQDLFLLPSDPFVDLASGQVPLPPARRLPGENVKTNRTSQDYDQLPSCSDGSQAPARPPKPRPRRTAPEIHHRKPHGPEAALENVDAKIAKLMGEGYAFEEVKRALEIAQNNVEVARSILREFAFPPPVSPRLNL

| IC50 [nM] | SMILES |
| --- | --- |
| 4 | C[C@H](NC1(C)CCC1)c1cc2c(c(C(F)(F)F)c1)CN(c1cccc([C@@H](c3nncn3C)C3COC3)c1)C2=O |
| 4 | CCOc1cc([C@]2(c3nncn3C)C[C@@H](C)C2)cc(N2Cc3c(cc(CNC4(C)CCC4)cc3C(F)(F)F)C2=O)n1 |
| 4 | Cn1cnnc1[C@]1(c2cccc(N3Cc4c(cc(CNC5(C)CCC5)cc4C(F)(F)F)C3=O)c2)C[C@H](Cl)C1 |
| 4 | CO[C@H]1C[C@](c2cccc(N3Cc4c(cc(CNC5CC6CC6C5)cc4C(F)(F)F)C3=O)c2)(c2nncn2C)C1 (stereo partly specified) |
| 4 | C[C@H](NC1(C)CCC1)c1cc(Cl)c2c(c1)C(=O)N(c1cccc([C@]3(c4nncn4C)C[C@H](F)C3)c1)C2 |
| 3 | Cn1cnnc1C(c1cccc(N2Cc3c(cc(CNC4(C)CCC4)cc3C(F)(F)F)C2=O)c1)[C@H]1C[C@H](CC#N)C1 (stereo partly specified) |
